“Also recorded” adds a separate entry of the source.
Legend:
[1] = tested on: RAJI cells; test: GLuc cytotoxicity assay, RAJI-GLuc cells; type: cell-based, human
Protocol: (D) Assay for Cytotoxic Activity in vitro and in vivo: The uninfected T cells or those expressing a control vector or SIR are cocultured with the target cell lines expressing a non-secretory form of a luciferase (such as GLuc, NLuc, Turboluc 16 etc.) for 4-96 hours and induction of cell lysis examined by measuring the luciferase activity as described in PCT/US17/52344. Alternate methods for measurement of cytotoxic activity (e.g., ^51Cr release assay or LDH release assay) can be used as well. The activity of T cells expressing a SIR can be also assayed in vivo using appropriate xenograft models in immunodeficient mice.
Cell death assay. To measure cell death, a novel assay based on ectopic cytosolic expression of Gluc or NLuc was utilized as described in PCT/US17/52344 “A Non-Radioactive Cytotoxicity Assay”. The method involves expression of a reporter in a target cells in a manner so that it is preferentially retained within the healthy cells but is either released from dead and dying cells or whose activity can be preferentially measured in dead and dying cells. The preferred reporter for this assay are 1) non-secreted forms of luciferases from the copepods, such as Gaussia princeps, Pleuromamma abdominalis, Metridia pacifica, Metridia curticauda, Metridia asymmetrica, Metridia okhotensis, Metridia longa, Lucicutia ovaliformis, Heterorhabdus tanneri, and Pleuromamma scutullata 2) engineered luciferase reporters from deep sea shrimp, such as NanoLuc. The sequence of several such reporter vectors is provided in SEQ ID NO: 881 to SEQ ID NO: 887. The above vectors were used to generate retrovirus and lentiviruses which in turn were used to generate polyclonal population of several target cell lines stably expressing GLuc, NLuc, TurboLuc or MLuc7 following selection with appropriate antibiotics. Unless indicated otherwise, the target cells stably expressing the different luciferases (GLuc, Nluc, MLuc7 or TurboLuc16) were plated in triplicate in a 384 well plate in the media used for growing the target cells. Target cells which grow in suspension were generally plated at a concentration of 2-3×10^4 per well, while target cells which grow as adherent monolayers were plated at a concentration of 1-2×10^4 per well. Unless indicated otherwise, the target cells were cocultured with the genetically modified T cells (i.e. those expressing SIR or CAR) at an Effector:Target (E:T) ratio varying from 1:1 to 10:1 for 4 hours to 96 hours. In the case target cells grow as adherent cells (e.g., HeLa cells), they were allowed to attach to the bottom of the wells overnight before the T cells were added. T cells mediated induction of lysis of target cells was assayed by increase of luciferase activity as measured by BioTek synergy plate reader by directly injecting 0.5×CTZ assay buffer containing native coeloentrazine (Nanaolight).
CTZ assay. A 100× stock solution of native coelenterazine (CTZ; Nanolight, cat #303) was made by dissolving 1 mg of lyophilized CT powder in 1.1 ml of 100% Methanol supplemented with 30 μl of 6N HCl to avoid oxidation of CTZ with time. To make CTZ assay buffer, the 100× stock solution of CTZ was diluted to 0.5× concentration in PBS. Unless indicated otherwise, a total volume of 15 μl of the CTZ assay buffer (as prepared above) was added to each well of a 384-well white plate (Greiner, 384 well white plate cat #781075) containing cells expressing the non-secretory form of the luciferase in approximately 50-60 μl volume of medium and plates were read for luminescence in endpoint mode using BioTek synergyH4 plate reader. For 96 well plates, cells were plated in 200 μl of media and approximately 50 μl of 0.5×CTZ assay buffer was added. Unless indicated otherwise, the 0.5×CTZ assay buffer was used for assaying the activity of GLuc, TurboLuc16, and MLuc7. The CTZ assay buffer (diluted to 0.125× concentration) was also used for measurement of NLuc activity in some experiments (see below).

[2] = tested on: target antigen-expressing cell line; test: Jurkat NFAT-GFP assay, coculture with target cell lines expressing the respective target antigen (summary Table 10A); type: cell-based, human; design: key: The signs +/−, +, 2+ etc. after the name of the cell lines indicate the relative degree of positivity on the Jurkat-NFAT-GFP assay as measured by the % GFP positive cells; +: relative degree of positivity on the Jurkat-NFAT-GFP assay as measured by the % GFP positive cells; 2+: relative degree of positivity on the Jurkat-NFAT-GFP assay as measured by the % GFP positive cells; settings: relative % GFP positive cells; for NFAT-GFP ASSAY Positive Cell lines: RAJI: SIR-expressing Jurkat-NFAT-GFP cells cocultured with RAJI; for NFAT-GFP ASSAY Positive Cell lines: NALM6: SIR-expressing Jurkat-NFAT-GFP cells cocultured with NALM6
Protocol: (B) Induction of NFAT promoter driven GFP expression. The control vector- and SIR-expressing Jurkat-NFAT-GFP cocultured for 4-24 hours with the target antigen-expressing cell line (described above) and their ability to bind to the target antigen is assayed by measuring induction of GFP expression using Flow Cytometry. Cellular supernatant is collected and assayed for the induction of cytokines (e.g., IL2).
Jurkat NFAT-GFP Assay For Synthetic Immune Receptors. The Jurkat-NFAT-GFP cells are engineered in such a way that the IL-2 promoter, which carries NFAT binding sites, is cloned upstream of the GFP gene. These cells have been used to study signaling via TCR and CAR. The different SIRs were stably expressed in Jurkat NFAT-GFP cells by lentiviral mediated gene transfer, followed by selection with puromycin. The SIR-expressing Jurkat-NFAT-GFP cells were cocultured with the target cells at E:T ratio of approximately 1:2 for approximately 4 hours to 18 hours. When the interaction between SIRs and their target antigen results in activation of the NFAT pathway, GFP expression is induced.
Induction of GFP expression by coculturing of Jurkat-NFAT-GFP cells expressing different SIR constructs and the different target cells was studied essentially as described previously (Wu, Roybal, Puchner, Onuffer, & Lim, 2015). GFP expression was monitored by FACS analysis. A few representative examples of this assay are shown in the FIG. 13A-B. In panel A, control Jurkat-NFAT-GFP cells or those expressing SIRs targeting CD19 (clone ID 051716-I08), MPL (Clone ID: 040716-A07) and BCMA (Clone ID: 011116-A07) were incubated with RAJI (top), HEL (middle) or U266 (bottom) cells, respectively. […] In panel B, Jurkat cells expressing SIR targeting CDH6 (Clone ID: 051716-J05), CD276 (Clone ID: 050516-Q06) and Her2/neu (Clone ID: 050516-I03) were incubated with SKOV3 (top) and […] (middle and bottom) cells, respectively. […] The Jurkat-NFAT-GFP cells were engineered to express different SIRs targeting other antigens and the experiment repeated upon coculture with the target cells expressing their respective target antigen. The Jurkat-NFAT-GFP (parental) cells were used as control. The names of different SIRs, their SEQ ID NOs, component antigen binding domains and TCR chains can be determined by reference to Tables 7A-7H. A SIR is considered positive in the assay in case the SIR expressing Jurkat-NFAT-GFP cells show greater % GFP positive cells when cultured with the target cell line as compared to parental Jurkat-NFAT-GFP cells. […] The signs +/−, +, 2+ etc. after the name of the cell lines indicate the relative degree of positivity on the Jurkat-NFAT-GFP assay as measured by the % GFP positive cells after culture of the SIR expressing Jurkat-NFAT-GFP cells with that cell line. […] In addition, great diversity of response against the same target cell line is observed with Jurkat cells expressing SIRs containing different antigen binding domains targeting the same antigen (e.g., SIRs having antigen binding domains derived form different CD19 antibodies) even when the SIRs share the same TCR chains and linkers. Finally, Jurkat cells expressing SIRs targeting different antigens (e.g. CD19 vs CD20) show a diversitiy of response when exposed to the same target cell line. Thus, a diverse immune response can be generated against a single target cell by combining SIRs with different TCR chains, linkers, antigen binding domains and target specificity. Table 10A also summarizes the results of GLuc based T cell cytotoxicity assay observed with different SIRs when exposed to their target cell lines. […]

Molecule	NFAT-GFP ASSAY Positive Cell lines: RAJI [2]	lysis of target cells by increase of GLuc activity (in words) ([1]; E:T 10:1, 4 hours)	other results
C[C@@H]1CC[C@@]2(OC1)O[C@H]1[C@@H](O)[C@H]3[C@@H]4CC[C@H]5C[C@@H](O[C@@H]6O[C@H](CO)[C@H](O[C@@H]7O[C@H](CO)[C@@H](O)[C@H](O[C@@H]8OC[C@@H](O)[C@H](O)[C@H]8O)[C@H]7O[C@@H]7O[C@H](CO)[C@H](O)[C@H](O[C@@H]8O[C@H](CO)[C@@H](O)[C@H](O)[C@H]8O)[C@H]7O)[C@H](O)[C@H]6O)[C@H](O)C[C@]5(C)[C@H]4CC[C@]3(C)[C@H]1[C@@H]2C [digitonin, Digitonin, reference compound]	–	–	mean Gluc values ([1]; E:T 10:1, 4 hours): 3869
CD8SP-CD19Bu12-vL-Gly-Ser-Linker-CD19Bu12-vH-V5-[hTCRb-WT]-F-P2A-PAC [SEQ ID NO:1022]	RAJI (+)	failed to induce lysis of RAJI cells	–
CD8SP-CD20-2F2-vL-[canine-TCRb-opt]-F-P2A-CD20-2F2-vH-[canine-TCRa-opt]-F-F2A-PAC [SEQ ID NO:1113]	RAJI (+/−)	effective induction of target cell lysis	–
CD8SP-FMC63-scFv-V5-[TCRb-S57C-opt1]-F-P2A-SP-FMC63-scFv-MYC-[TCRa-T48C-opt1]-T2A-Pac [SEQ ID NO:910]	RAJI (+/−)	–	–
CD8SP-FMC63-vL-G4Sx2-[hTCRa-S61R-opt]-F-F2A-FMC63-vH-G4Sx2-[hTCRb-R79G-opt]-F-P2A-PAC [SEQ ID NO:955]	RAJI (+/−)	–	–
CD8SP-FMC63-vL-Gly-Ser-Linker-FMC63-vH-Myc-[preTCRa-Del48]-F-F2A-PAC [SEQ ID NO:914]	RAJI (+)	–	–
CD8SP-FMC63-vL-Gly-Ser-Linker-FMC63-vH-V5-[hTCRb-S57C-opt]-F-P2A-PAC [SEQ ID NO:912]	RAJI (+/−)	failed to induce lysis of RAJI cells	–
CD8SP-FMC63-vL-Gly-Ser-Linker-FMC63-vH-V5-[hTCRb-S57C-opt]-F-P2A-SP-Myc-[hTCRa-T48C-opt]-F-F2A-PAC [SEQ ID NO:991]	+/−	–	NFAT-GFP ASSAY Positive Cell lines: NALM6 [2]: +
CD8SP-FMC63-vL-Gly-Ser-Linker-FMC63-vH-V5-[hTCRb-WT]-F-P2A-PAC [SEQ ID NO:911]	RAJI (+)	–	–
CD8SP-FMC63-vL-Myc2-[hTCRb-R79G-opt]-F-P2A-SP-FMC63-vH-Myc4-[hTCRa-S61R-opt]-F-F2A-PAC [SEQ ID NO:937]	RAJI (+/−)	–	–
CD8SP-FMC63-vL-Myc-[hTCRa-T48C-opt1]-F-F2A-FMC63-VH-V5-[hTCRb-C57C-opt1]-F-P2A-PAC [SEQ ID NO:902]	–	can induce effective lysis of the target cells	–
CD8SP-FMC63-vL-Streptag-[hTCRb-R79G]-F-P2A-SP-FMC63-vH-Myc4-[hTCRa-S61R]-F-F2A-PAC [SEQ ID NO:938]	RAJI (+/−)	–	–
CD8SP-FMC63-vL-V5-[hTCRb-S57C-opt]-F-P2A-SP-FMC63-vH-Myc-[hTCRa-T48C-opt]-F-F2A-PAC [SEQ ID NO:951]	–	induced effective target cell lysis; also recorded: Modest cytotoxicity	–
CD8SP-FMC63-vL-V5-[hTCRb-WT]-F-P2A-SP-FMC63-vH-Myc-[hTCRa-WT]-F-F2A-PAC [SEQ ID NO:922]	RAJI (2+)	fails to cause significant target cell lysis	lysis of target cells by increase of GLuc activity (in words) ([1]; E:T 1:1, 96 hours): fails to cause significant target cell lysis
CD8SP-FMC63-vL-V5-[mTCRb-opt]-F-P2A-SP-FMC63-vH-Myc-[mTCRa-opt]-F-F2A-PAC [SEQ ID NO:953]	–	increase in GLuc activity	lysis of target cells by increase of GLuc activity (in words) ([1]; E:T 1:1, 96 hours): increase in GLuc activity
IgHSP-FMC63-vH-[hTCRb-C57C-opt]-F-P2A-CD8SP-FMC63-VL-MYC-[hTCRa-T48C-opt]-F-F2A-Pac [SEQ ID NO:901]	RAJI(2+), NALM6(2+)	can also induce effective lysis of the target cells	NFAT-GFP ASSAY Positive Cell lines: NALM6 [2]: RAJI(2+), NALM6(2+)

— patent US12269859B2, “Synthetic immune receptors and methods of use thereof” (Angeles Therapeutics, Inc., priority 2016, dated 2025)
